# Experimental data as given in US6410054B1, “Immediate release eplerenone compositions” (G. D. Searle & Co., priority 1998, dated 2002).
# Assays:
# [1] = design: species or system beagle dogs; settings: female, beagle, dog, in vivo
# Procedure: The effect of the particle size of the eplerenone starting material used in the pharmaceutical composition on eplerenone plasma concentrations and relative bioavailability was studied in a dog model. Four healthy female beagle dogs weighing between 8 to 12 kg were intragastrically administered one immediate release (IR) capsule containing the formulation described in Table 30A below followed by about 10 mL of water.
# The dogs were fasted for 15 to 20 hours prior to administration of the capsule and were not fed again until at least 4 hours after dose administration. Blood samples (approximately 3 mL) were collected by venipuncture in chilled tubes containing heparin at 0, 0.5, 1, 2, 3, 4, 6, 8 and 24 hours after dose administration. The blood samples were immediately placed on ice. Separation of plasma from the blood samples was complete after about 15 minutes of centrifugation. The resulting plasma samples were frozen at about −20° C. and stored until analyzed. Analysis was performed using an LC/MS/MS procedure.
# This study was conducted using the same four dogs for three formulations that were identical except for the particle size of the eplerenone starting material. […]
# [2] = Single dose study: plasma pharmacokinetics of eplerenone, open lactone ring form, spironolactone; settings: for Plasma Concentration Of Eplerenone: -0.25 h (predose); for Oral Clearance: eplerenone in plasma; for concentration at 12 h / AUC(0-t) / Cmax / MRT / Tmax / concentration at 0.5 h / concentration at 1 h / concentration at 2 h / concentration at 3 h / concentration at 4 h / concentration at 6 h / concentration at 8 h / concentration at 16 h / concentration at 24 h / concentration at 28 h / concentration at 32 h / concentration at 48 h / concentration at 72 h / concentration at 96 h / half-life: male, human, po
# Procedure: The pharmacokinetics, safety and antialdosterone activity of single 10, 50, 100, 300 and 1000 mg oral doses of eplerenone were evaluated in a single-center, randomized, double-blind, placebo-controlled study.
# The study employed seven parallel dose groups of eight healthy male humans.
# The eplerenone capsules administered corresponded to the capsules (or combinations of the capsules) disclosed in Examples 4, 5, 7 and 8 above. The placebo was a conventional capsule containing lactose. […] The fludrocortisone used in the study consisted of commercially available fludrocortisone tablets (Florinef®, Squibb BV).
# The subjects, who underwent a ten hour food fast prior to administration of the dose, received a single oral dose of one of the study medications together with about 180 mL of water at 0800 hours. […] Each dose of fludrocortisone was administered with 150 mL of water except for the 1.0 mg dose which was administered with 200 mL of water.
# The plasma samples collected from subjects dosed with eplerenone were assayed for concentrations of eplerenone and the open lactone ring form of eplerenone. […] A subset of plasma samples was also assayed for testosterone levels. The urine collected was analyzed to determine concentrations and amounts of eplerenone and the open lactone ring form of eplerenone, the amount of sodium and potassium excreted, and the urinary log10 (sodium/potassium) ratio.
# [3] = Multiple dose study: plasma pharmacokinetics and urinary excretion; assay type: in vivo, humans; settings: for AUC / Cmax / Tmax / half-life: male, human, plasma, oral; for half-life: read-out: T½ (converted)
# Procedure: Multiple oral dose tolerability and the pharmacokinetics of several dosages of eplerenone were evaluated in a double-blind, randomized, placebo-controlled, rising oral dose, sequential panel study of 40 healthy male subjects (five groups of eight subjects). The study medication was administered in […] sequential dose panels, with each panel including eplerenone, spironolactone and placebo. […] The 100 mg and 200 mg dose capsules corresponded to those described in Examples 7 and 8, respectively. Following a 48-hour interval, the study drug was administered once a day for 11 days. Antialdosterone activity was determined following a fludrocortisone challenge on Days 12-13.
# [4] = 100 mg, eplerenone 100 mg Dose, Multiple Dose
# [5] = 100 mg, eplerenone 100 mg Dose, Single Dose
# [6] = 300 mg, eplerenone 300 mg Dose, Multiple Dose
# [7] = 300 mg, eplerenone 300 mg Dose, Single Dose
# [8] = 1000 mg, eplerenone 1000 mg Dose, Multiple Dose
# [9] = 1000 mg, eplerenone 1000 mg Dose, Single Dose
structure (smiles),measurement,setting,value
"COC(=O)C1CC2=CC(=O)CCC2(C)C23OC2CC2(C)C(CC[C@@]24CCC(=O)O4)C13 (stereo partly drawn) [eplerenone, methyl hydrogen 9,11α-epoxy-17α-hydroxy-3-oxopregn-4-ene-7α,21-dicarboxylate, γ-lactone]",increase of relative bioavailability,[1],~100%
same,Plasma Concentration Of Eplerenone,[2]; 10 mg single oral dose,0 ng/mL
same,Plasma Concentration Of Eplerenone,[2]; 50 mg single oral dose,0 ng/mL
same,Plasma Concentration Of Eplerenone,[2]; 100 mg single oral dose,0 ng/mL
same,Plasma Concentration Of Eplerenone,[2]; 300 mg single oral dose,0 ng/mL
same,Plasma Concentration Of Eplerenone,[2]; 1000 mg single oral dose,0 ng/mL
same,Oral Clearance,[2]; 10 mg single oral dose,13.3 L/h
same,Oral Clearance,[2]; 50 mg single oral dose,13.7 L/h
same,Oral Clearance,[2]; 100 mg single oral dose,13.1 L/h
same,Oral Clearance,[2]; 300 mg single oral dose,17.6 L/h
same,Oral Clearance,[2]; 1000 mg single oral dose,18.4 L/h
same,concentration at 12 h,"[2]; in vivo, 50 mg",49.4 ng/mL
same,AUC(0-t),"[2]; plasma, 10 mg",942 ng·h/mL
same,Cmax,"[2]; plasma, 10 mg",191 ng/mL
same,MRT,"[2]; plasma, 10 mg",3.9 h
same,Tmax,"[2]; plasma, 10 mg",1.3 h
same,concentration at 0.5 h,"[2]; plasma, 10 mg",130 ng/mL
same,concentration at 1 h,"[2]; plasma, 10 mg",177 ng/mL
same,concentration at 2 h,"[2]; plasma, 10 mg",159 ng/mL
same,concentration at 3 h,"[2]; plasma, 10 mg",125 ng/mL
same,concentration at 4 h,"[2]; plasma, 10 mg",106 ng/mL
same,concentration at 6 h,"[2]; plasma, 10 mg",65.3 ng/mL
same,concentration at 8 h,"[2]; plasma, 10 mg",34.4 ng/mL
same,concentration at 12 h,"[2]; plasma, 10 mg",6 ng/mL
same,concentration at 16 h,"[2]; plasma, 10 mg",6 ng/mL
same,concentration at 24 h,"[2]; plasma, 10 mg",1.7 ng/mL
same,concentration at 28 h,"[2]; plasma, 10 mg",0 ng/mL
same,concentration at 32 h,"[2]; plasma, 10 mg",0 ng/mL
same,concentration at 48 h,"[2]; plasma, 10 mg",0 ng/mL
same,concentration at 72 h,"[2]; plasma, 10 mg",0 ng/mL
same,concentration at 96 h,"[2]; plasma, 10 mg",0 ng/mL
same,half-life,"[2]; plasma, 10 mg",2.1 h
same,AUC(0-t),"[2]; plasma, 50 mg",4020 ng·h/mL
same,Cmax,"[2]; plasma, 50 mg",797 ng/mL
same,MRT,"[2]; plasma, 50 mg",4.2 h
same,Tmax,"[2]; plasma, 50 mg",1.4 h
same,concentration at 0.5 h,"[2]; plasma, 50 mg",552 ng/mL
same,concentration at 1 h,"[2]; plasma, 50 mg",721 ng/mL
same,concentration at 2 h,"[2]; plasma, 50 mg",693 ng/mL
same,concentration at 3 h,"[2]; plasma, 50 mg",592 ng/mL
same,concentration at 4 h,"[2]; plasma, 50 mg",457 ng/mL
same,concentration at 6 h,"[2]; plasma, 50 mg",270 ng/mL
same,concentration at 8 h,"[2]; plasma, 50 mg",146 ng/mL
same,concentration at 16 h,"[2]; plasma, 50 mg",18.3 ng/mL
same,concentration at 24 h,"[2]; plasma, 50 mg",3 ng/mL
same,concentration at 28 h,"[2]; plasma, 50 mg",1.8 ng/mL
same,concentration at 32 h,"[2]; plasma, 50 mg",0 ng/mL
same,concentration at 48 h,"[2]; plasma, 50 mg",0 ng/mL
same,concentration at 72 h,"[2]; plasma, 50 mg",0 ng/mL
same,concentration at 96 h,"[2]; plasma, 50 mg",0 ng/mL
same,half-life,"[2]; plasma, 50 mg",2.9 h
same,AUC(0-t),"[2]; plasma, 100 mg",7940 ng·h/mL
same,Cmax,"[2]; plasma, 100 mg",1500 ng/mL
same,MRT,"[2]; plasma, 100 mg",4.9 h
same,Tmax,"[2]; plasma, 100 mg",1.5 h
same,concentration at 0.5 h,"[2]; plasma, 100 mg",758 ng/mL
same,concentration at 1 h,"[2]; plasma, 100 mg",1220 ng/mL
same,concentration at 2 h,"[2]; plasma, 100 mg",1360 ng/mL
same,concentration at 3 h,"[2]; plasma, 100 mg",1110 ng/mL
same,concentration at 4 h,"[2]; plasma, 100 mg",900 ng/mL
same,concentration at 6 h,"[2]; plasma, 100 mg",558 ng/mL
same,concentration at 8 h,"[2]; plasma, 100 mg",275 ng/mL
same,concentration at 12 h,"[2]; plasma, 100 mg",124 ng/mL
same,concentration at 16 h,"[2]; plasma, 100 mg",41.9 ng/mL
same,concentration at 24 h,"[2]; plasma, 100 mg",13.1 ng/mL
same,concentration at 28 h,"[2]; plasma, 100 mg",6.1 ng/mL
same,concentration at 32 h,"[2]; plasma, 100 mg",3 ng/mL
same,concentration at 48 h,"[2]; plasma, 100 mg",0 ng/mL
same,concentration at 72 h,"[2]; plasma, 100 mg",0 ng/mL
same,concentration at 96 h,"[2]; plasma, 100 mg",0 ng/mL
same,half-life,"[2]; plasma, 100 mg",4.9 h
same,AUC(0-t),"[2]; plasma, 300 mg",18500 ng·h/mL
same,Cmax,"[2]; plasma, 300 mg",2970 ng/mL
same,MRT,"[2]; plasma, 300 mg",5.5 h
same,Tmax,"[2]; plasma, 300 mg",1.5 h
same,concentration at 0.5 h,"[2]; plasma, 300 mg",1620 ng/mL
same,concentration at 1 h,"[2]; plasma, 300 mg",2680 ng/mL
same,concentration at 2 h,"[2]; plasma, 300 mg",2780 ng/mL
same,concentration at 3 h,"[2]; plasma, 300 mg",2220 ng/mL
same,concentration at 4 h,"[2]; plasma, 300 mg",1950 ng/mL
same,concentration at 6 h,"[2]; plasma, 300 mg",1270 ng/mL
same,concentration at 8 h,"[2]; plasma, 300 mg",843 ng/mL
same,concentration at 12 h,"[2]; plasma, 300 mg",333 ng/mL
same,concentration at 16 h,"[2]; plasma, 300 mg",142 ng/mL
same,concentration at 24 h,"[2]; plasma, 300 mg",38.3 ng/mL
same,concentration at 28 h,"[2]; plasma, 300 mg",21.1 ng/mL
same,concentration at 32 h,"[2]; plasma, 300 mg",11.3 ng/mL
same,concentration at 48 h,"[2]; plasma, 300 mg",1.7 ng/mL
same,concentration at 72 h,"[2]; plasma, 300 mg",0 ng/mL
same,concentration at 96 h,"[2]; plasma, 300 mg",0 ng/mL
same,half-life,"[2]; plasma, 300 mg",3.7 h
same,AUC(0-t),"[2]; plasma, 1000 mg",56400 ng·h/mL
same,Cmax,"[2]; plasma, 1000 mg",7260 ng/mL
same,MRT,"[2]; plasma, 1000 mg",7 h
same,Tmax,"[2]; plasma, 1000 mg",2.5 h
same,concentration at 0.5 h,"[2]; plasma, 1000 mg",3180 ng/mL
same,concentration at 1 h,"[2]; plasma, 1000 mg",5260 ng/mL
same,concentration at 2 h,"[2]; plasma, 1000 mg",5940 ng/mL
same,concentration at 3 h,"[2]; plasma, 1000 mg",6810 ng/mL
same,concentration at 4 h,"[2]; plasma, 1000 mg",6220 ng/mL
same,concentration at 6 h,"[2]; plasma, 1000 mg",4150 ng/mL
same,concentration at 8 h,"[2]; plasma, 1000 mg",2830 ng/mL
same,concentration at 12 h,"[2]; plasma, 1000 mg",1340 ng/mL
same,concentration at 16 h,"[2]; plasma, 1000 mg",647 ng/mL
same,concentration at 24 h,"[2]; plasma, 1000 mg",208 ng/mL
same,concentration at 28 h,"[2]; plasma, 1000 mg",107 ng/mL
same,concentration at 32 h,"[2]; plasma, 1000 mg",61.7 ng/mL
same,concentration at 48 h,"[2]; plasma, 1000 mg",22.3 ng/mL
same,concentration at 72 h,"[2]; plasma, 1000 mg",1.4 ng/mL
same,concentration at 96 h,"[2]; plasma, 1000 mg",0 ng/mL
same,half-life,"[2]; plasma, 1000 mg",15.1 h
same,relationship between eplerenone dose and plasma concentration,[2]; single 10-1000 mg oral doses,linear relationship
same,dose proportionality of plasma concentrations and dose-adjusted AUC,"[3]; 100 mg to 1000 mg, single or multiple doses",lack of dose proportionality
same,plasma concentrations at 24 hours postdose,"[3]; all dosing groups (100, 300, 1000 mg)",detectable
same,AUC,[3]; [4],11800 ng·h/mL
same,Cmax,[3]; [4],1900 ng/mL
same,Tmax,[3]; [4],1.1 h
same,half-life,[3]; [4],4 h
same,AUC,[3]; [5],11300 ng·h/mL
same,Cmax,[3]; [5],1750 ng/mL
same,Tmax,[3]; [5],1.8 h
same,half-life,[3]; [5],3.9 h
same,AUC,[3]; [6],26500 ng·h/mL
same,Cmax,[3]; [6],3580 ng/mL
same,Tmax,[3]; [6],1.8 h
same,half-life,[3]; [6],4.6 h
same,AUC,[3]; [7],23900 ng·h/mL
same,Cmax,[3]; [7],3230 ng/mL
same,Tmax,[3]; [7],2.4 h
same,half-life,[3]; [7],4.6 h
same,AUC,[3]; [8],63200 ng·h/mL
same,Cmax,[3]; [8],7390 ng/mL
same,Tmax,[3]; [8],1.4 h
same,half-life,[3]; [8],6.2 h
same,AUC,[3]; [9],62100 ng·h/mL
same,Cmax,[3]; [9],6880 ng/mL
same,Tmax,[3]; [9],2 h
same,half-life,[3]; [9],8.7 h
same,accumulation,[3]; once a day for 11 days,no significant or dose-related accumulation
